In US12371428B2 (Exelixis, Inc., priority 2019, dated 2025):
Counter-ions that a name gives are not always drawn.

What was measured:
[1] = molecular target: Human KDR (residues 790-1356) (Homo sapiens (Human), UniProt P35968); test: Human KDR kinase assay, HTRF KinEase (Example B-2); format: biochemical; details: protocol of Example B-2 (other compounds)
Procedure, shortened: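 Ten compound concentrations (3% DMSO final) were pre-plated, then KDR (790-1356) with biotinylated peptide in Mg/Mn/DTT buffer was added; ATP at Km (4.0 μM) started a 40 min room-temperature reaction. Detection used Eu-TK antibody and SA-XL665 in EDTA buffer; activity normalized to DMSO and reference inhibitor, IC50 by logistic fit.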

[2] = molecular target: Met (phospho-Met, HGF-stimulated PC-3 prostate cancer cells) (Homo sapiens (Human), UniProt P08581); test: Met autophosphorylation ELISA in PC-3 cells (Example F); format: cell-based; details: cellular activity; Met autophosphorylation ELISA in PC-3 cells; read-out: c-Met IC50
Chain of Met (phospho-Met, HGF-stimulated PC-3 prostate cancer cells) (P08581 25-1390): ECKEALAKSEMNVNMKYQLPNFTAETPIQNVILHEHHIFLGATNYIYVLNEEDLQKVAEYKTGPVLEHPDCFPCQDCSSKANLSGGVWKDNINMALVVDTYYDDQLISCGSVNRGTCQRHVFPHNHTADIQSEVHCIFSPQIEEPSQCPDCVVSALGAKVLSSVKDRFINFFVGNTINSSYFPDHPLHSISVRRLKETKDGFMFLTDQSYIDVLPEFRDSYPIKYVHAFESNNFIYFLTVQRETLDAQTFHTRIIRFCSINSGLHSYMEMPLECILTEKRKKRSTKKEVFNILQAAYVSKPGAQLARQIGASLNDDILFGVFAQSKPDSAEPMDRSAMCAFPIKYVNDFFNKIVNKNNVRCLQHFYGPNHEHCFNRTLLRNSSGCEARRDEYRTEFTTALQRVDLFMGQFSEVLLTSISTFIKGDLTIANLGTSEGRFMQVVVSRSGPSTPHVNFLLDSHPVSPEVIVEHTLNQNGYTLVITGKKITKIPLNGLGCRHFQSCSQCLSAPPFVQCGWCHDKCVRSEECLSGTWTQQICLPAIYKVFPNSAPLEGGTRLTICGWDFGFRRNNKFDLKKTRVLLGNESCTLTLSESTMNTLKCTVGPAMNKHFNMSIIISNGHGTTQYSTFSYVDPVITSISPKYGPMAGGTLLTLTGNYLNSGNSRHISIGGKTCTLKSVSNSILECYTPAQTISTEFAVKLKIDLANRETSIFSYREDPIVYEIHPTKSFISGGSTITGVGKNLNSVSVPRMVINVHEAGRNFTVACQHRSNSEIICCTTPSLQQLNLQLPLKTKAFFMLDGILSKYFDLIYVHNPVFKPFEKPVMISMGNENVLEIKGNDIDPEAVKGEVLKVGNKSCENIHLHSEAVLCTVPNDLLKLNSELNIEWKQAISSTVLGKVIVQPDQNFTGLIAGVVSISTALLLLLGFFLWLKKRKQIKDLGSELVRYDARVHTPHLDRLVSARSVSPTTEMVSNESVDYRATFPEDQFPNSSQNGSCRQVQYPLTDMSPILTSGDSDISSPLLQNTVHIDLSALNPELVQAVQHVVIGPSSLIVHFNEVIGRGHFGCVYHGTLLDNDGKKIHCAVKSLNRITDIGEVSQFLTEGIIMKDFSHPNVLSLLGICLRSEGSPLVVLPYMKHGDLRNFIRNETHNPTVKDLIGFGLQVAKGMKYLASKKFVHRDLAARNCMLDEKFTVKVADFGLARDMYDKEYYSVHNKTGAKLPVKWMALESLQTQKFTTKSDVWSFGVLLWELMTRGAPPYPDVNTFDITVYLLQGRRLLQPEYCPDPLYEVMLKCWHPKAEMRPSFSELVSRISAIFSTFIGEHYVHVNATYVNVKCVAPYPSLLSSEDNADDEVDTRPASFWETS
Procedure, shortened: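 PC-3 cells, serum-starved 3 h, were treated with compounds (8-point dose curve, 0.3% DMSO final) for 1 h, then stimulated with 100 ng/mL recombinant human HGF for 10 min. Lysate phospho-Met (panTyr) was quantified by sandwich ELISA; IC50 from 4-parameter logistic fit.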

[3] = molecular target: Mer (phospho-Mer, MERTK-transfected 293A cells) (Homo sapiens (Human), UniProt Q12866); test: Mer autophosphorylation ELISA in transient transfected 293A cells (Example H); format: cell-based; details: cellular activity; Mer autophosphorylation ELISA in transient transfected 293A cells
Chain of Mer (phospho-Mer, MERTK-transfected 293A cells) (Q12866 21-999): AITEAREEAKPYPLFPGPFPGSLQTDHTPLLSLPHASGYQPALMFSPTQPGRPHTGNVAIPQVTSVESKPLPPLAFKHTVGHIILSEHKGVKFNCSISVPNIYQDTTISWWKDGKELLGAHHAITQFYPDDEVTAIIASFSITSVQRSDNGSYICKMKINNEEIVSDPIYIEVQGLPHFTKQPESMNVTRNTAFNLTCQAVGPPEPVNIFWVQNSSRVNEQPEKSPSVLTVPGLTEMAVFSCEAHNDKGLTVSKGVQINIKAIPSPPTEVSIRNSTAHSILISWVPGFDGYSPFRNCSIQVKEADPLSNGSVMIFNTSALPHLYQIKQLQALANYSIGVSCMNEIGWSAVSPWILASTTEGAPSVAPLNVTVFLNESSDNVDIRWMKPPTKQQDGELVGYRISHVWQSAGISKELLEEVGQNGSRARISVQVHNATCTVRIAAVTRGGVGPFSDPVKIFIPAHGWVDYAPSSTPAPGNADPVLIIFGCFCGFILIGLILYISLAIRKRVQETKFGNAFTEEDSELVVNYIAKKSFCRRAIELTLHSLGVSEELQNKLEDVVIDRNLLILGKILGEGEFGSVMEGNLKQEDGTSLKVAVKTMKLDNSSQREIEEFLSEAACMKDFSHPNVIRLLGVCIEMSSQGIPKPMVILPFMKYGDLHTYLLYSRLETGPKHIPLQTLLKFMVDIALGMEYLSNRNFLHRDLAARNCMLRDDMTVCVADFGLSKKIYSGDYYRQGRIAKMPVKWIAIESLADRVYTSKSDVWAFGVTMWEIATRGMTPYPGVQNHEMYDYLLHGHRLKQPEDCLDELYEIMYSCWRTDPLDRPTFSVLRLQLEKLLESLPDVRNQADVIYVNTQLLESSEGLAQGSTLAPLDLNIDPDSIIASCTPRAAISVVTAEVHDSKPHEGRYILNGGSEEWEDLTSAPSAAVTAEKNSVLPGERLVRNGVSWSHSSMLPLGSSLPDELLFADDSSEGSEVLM
Procedure, shortened: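 MERTK-transfected 293A; 8-pt dose, 1 h, serum-free, 0.3% DMSO. Cold lysis with orthovanadate and protease/phosphatase inhibitors. Phospho-Mer by DuoSet IC ELISA vs phospho-Mer standard. IC50: 4-PL fit; DMSO = 100%, reference inhibitor = 0%.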

Chain of Human KDR (residues 790-1356) (P35968 790-1356): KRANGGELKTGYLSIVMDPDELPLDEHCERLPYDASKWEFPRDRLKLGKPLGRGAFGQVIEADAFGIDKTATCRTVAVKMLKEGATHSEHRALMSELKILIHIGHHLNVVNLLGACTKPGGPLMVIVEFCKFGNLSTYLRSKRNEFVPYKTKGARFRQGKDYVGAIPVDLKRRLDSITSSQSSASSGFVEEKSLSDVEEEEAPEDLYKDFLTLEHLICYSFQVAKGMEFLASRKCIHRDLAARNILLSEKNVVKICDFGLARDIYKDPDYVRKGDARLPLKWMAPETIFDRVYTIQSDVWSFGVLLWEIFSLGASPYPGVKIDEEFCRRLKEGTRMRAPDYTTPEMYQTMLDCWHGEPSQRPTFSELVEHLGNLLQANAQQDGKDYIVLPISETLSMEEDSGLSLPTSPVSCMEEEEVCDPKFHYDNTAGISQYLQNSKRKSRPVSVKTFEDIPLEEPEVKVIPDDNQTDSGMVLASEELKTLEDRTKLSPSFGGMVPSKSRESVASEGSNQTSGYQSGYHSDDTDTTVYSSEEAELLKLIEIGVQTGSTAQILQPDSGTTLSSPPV

| Compound | IC50 [1] [nM] | IC50 [2] [nM] | IC50 [3] [nM] |
| --- | --- | --- | --- |
| COc1cnc2c(Oc3ccc(NC(=O)c4cn(C)c(CO)c(-c5ccc(F)cc5)c4=O)cc3)ccnc2c1 [Compound 223, 5-(4-Fluorophenyl)-6-(hydroxymethyl)-N-[4-[(7-methoxy-1,5-naphthyridin-4-yl)oxy]phenyl]-1-methyl-4-oxopyridine-3-carboxamide] | > 300 | < 100 | < 100 |
| COCc1nc(C)c(-c2ccc(F)cc2C)c(O)c1C(=O)Nc1ccc(Oc2ccnc3cc(OC)c(OC)nc23)c(F)c1 [Compound 191, N-[4-[(6,7-Dimethoxy-1,5-naphthyridin-4-yl)oxy]-3-fluorophenyl]-5-(4-fluoro-2-methylphenyl)-4-hydroxy-2-(methoxymethyl)-6-methylpyridine-3-carboxamide] | < 100 | < 100 | < 100 |
| COc1cc2nccc(Oc3ccc(NC(=O)c4cn(C)cc(-c5cccc(F)c5)c4=O)cc3F)c2nc1OC [Compound 35, N-[4-[(6,7-Dimethoxy-1,5-naphthyridin-4-yl)oxy]-3-fluorophenyl]-5-(3-fluorophenyl)-1-methyl-4-oxopyridine-3-carboxamide hydrochloride] | < 100 | < 100 | < 100 |
| COc1cc2nccc(Oc3ccc(NC(=O)c4cn(C)c(CO)c(-c5ccc(F)cc5)c4=O)cc3)c2nc1OC [Compound 221, N-[4-[(6,7-Dimethoxy-1,5-naphthyridin-4-yl)oxy]phenyl]-5-(4-fluorophenyl)-6-(hydroxymethyl)-1-methyl-4-oxopyridine-3-carboxamide] | 100 to 300 | < 100 | < 100 |
| COc1ccc2nccc(Oc3ccc(NC(=O)c4cnc(CO)c(-c5ccc(F)cc5)c4O)cc3F)c2n1 [Compound 231, N-[3-Fluoro-4-[(6-methoxy-1,5-naphthyridin-4-yl)oxy]phenyl]-5-(4-fluorophenyl)-4-hydroxy-6-(hydroxymethyl)pyridine-3-carboxamide] | 100 to 300 | < 100 | < 100 |
| COc1cnc2c(Oc3ccc(NC(=O)c4ccc(C)n(-c5ccc(F)cc5C)c4=O)cc3)ccnc2c1 [Compound 226, 1-(4-Fluoro-2-methylphenyl)-N-[4-[(7-methoxy-1,5-naphthyridin-4-yl)oxy]phenyl]-6-methyl-2-oxopyridine-3-carboxamide] | 100 to 300 | < 100 | < 100 |
| COc1cnc2c(Oc3ccc(NC(=O)c4ccc(C)n(-c5ccc(F)cc5)c4=O)cc3)ccnc2c1 [Compound 216, 1-(4-Fluorophenyl)-N-[4-[(7-methoxy-1,5-naphthyridin-4-yl)oxy]phenyl]-6-methyl-2-oxopyridine-3-carboxamide] | < 100 | < 100 | < 100 |
| COc1cnc2c(Oc3ccc(NC(=O)c4ccc(C)n(-c5ccc(F)cc5C)c4=O)cc3F)ccnc2c1 [Compound 220, N-[3-Fluoro-4-[(7-methoxy-1,5-naphthyridin-4-yl)oxy]phenyl]-1-(4-fluoro-2-methylphenyl)-6-methyl-2-oxopyridine-3-carboxamide] | < 100 | < 100 | < 100 |
| CCc1nc(C)c(-c2ccc(F)cc2C)c(O)c1C(=O)Nc1ccc(Oc2ccnc3cc(OC)cnc23)cc1 [Compound 205, 2-Ethyl-5-(4-fluoro-2-methylphenyl)-4-hydroxy-N-[4-[(7-methoxy-1,5-naphthyridin-4-yl)oxy]phenyl]-6-methylpyridine-3-carboxamide] | > 300 | < 100 | < 100 |
| COc1cc2nccc(Oc3ccc(NC(=O)c4cn(C)c(C)c(-c5cccc(F)c5)c4=O)cc3F)c2nc1OC [Compound 37, N-[4-[(6,7-Dimethoxy-1,5-naphthyridin-4-yl)oxy]-3-fluorophenyl]-5-(3-fluorophenyl)-1,6-dimethyl-4-oxopyridine-3-carboxamide hydrochloride] | 100 to 300 | < 100 | < 100 |
| COCCOc1nc2c(Oc3ccc(NC(=O)c4cn(C)c(C)c(-c5ccc(F)cc5)c4=O)cc3F)ccnc2cc1OC [Compound 198, N-[3-Fluoro-4-[[7-methoxy-6-(2-methoxyethoxy)-1,5-naphthyridin-4-yl]oxy]phenyl]-5-(4-fluorophenyl)-1,6-dimethyl-4-oxopyridine-3-carboxamide] | 100 to 300 | < 100 | < 100 |
| CCc1nc(C)c(-c2ccc(F)cc2C)c(O)c1C(=O)Nc1ccc(Oc2ccnc3cc(OC)c(OC)nc23)c(F)c1 [Compound 202, N-[4-[(6,7-Dimethoxy-1,5-naphthyridin-4-yl)oxy]-3-fluorophenyl]-2-ethyl-5-(4-fluoro-2-methylphenyl)-4-hydroxy-6-methylpyridine-3-carboxamide] | 100 to 300 | < 100 | < 100 |
| COCc1nc(C)c(-c2ccc(F)cc2)c(O)c1C(=O)Nc1ccc(Oc2ccnc3cc(OC)cnc23)c(F)c1 [Compound 186, N-[3-Fluoro-4-[(7-methoxy-1,5-naphthyridin-4-yl)oxy]phenyl]-5-(4-fluorophenyl)-4-hydroxy-2-(methoxymethyl)-6-methylpyridine-3-carboxamide] | < 100 | < 100 | < 100 |
| COc1ccc2nccc(Oc3ccc(NC(=O)c4cn(C)c(C)c(-c5ccc(F)cc5C)c4=O)cc3F)c2n1 [Compound 183, N-[3-Fluoro-4-[(6-methoxy-1,5-naphthyridin-4-yl)oxy]phenyl]-5-(4-fluoro-2-methylphenyl)-1,6-dimethyl-4-oxopyridine-3-carboxamide] | > 300 | 100 to 300 | < 100 |
| COCCOc1nc2c(Oc3ccc(NC(=O)c4c(COC)nc(C)c(-c5ccc(F)cc5C)c4O)cc3F)ccnc2cc1OC [Compound 201, N-[3-Fluoro-4-[[7-methoxy-6-(2-methoxyethoxy)-1,5-naphthyridin-4-yl]oxy]phenyl]-5-(4-fluoro-2-methylphenyl)-4-hydroxy-2-(methoxymethyl)-6-methylpyridine-3-carboxamide] | 100 to 300 | < 100 | < 100 |
| COCc1nc(C)c(-c2ccc(F)cc2C)c(O)c1C(=O)Nc1ccc(Oc2ccnc3cc(OC)c(OC)nc23)cc1 [Compound 192, N-[4-[(6,7-Dimethoxy-1,5-naphthyridin-4-yl)oxy]phenyl]-5-(4-fluoro-2-methylphenyl)-4-hydroxy-2-(methoxymethyl)-6-methylpyridine-3-carboxamide] | < 100 | < 100 | < 100 |

The next lines start with the values.

| IC50 [1] [nM] | IC50 [2] [nM] | IC50 [3] [nM] | Compound |
| --- | --- | --- | --- |
| 100 to 300 | < 100 | < 100 | COc1cnc2c(Oc3ccc(NC(=O)c4n[nH]c(C)c(-c5ccc(F)cc5)c4=O)cc3)ccnc2c1 [Compound 245, 5-(4-Fluorophenyl)-N-[4-[(7-methoxy-1,5-naphthyridin-4-yl)oxy]phenyl]-6-methyl-4-oxo-1H-pyridazine-3-carboxamide] |
| > 300 | < 100 | < 100 | COc1cnc2c(Oc3ccc(NC(=O)c4nnc(C)c(-c5ccc(F)cc5C)c4O)cc3F)ccnc2c1 (single isomer, unassigned) [Compound 249C, N-[3-Fluoro-4-[(7-methoxy-1,5-naphthyridin-4-yl)oxy]phenyl]-5-(4-fluoro-2-methylphenyl)-4-hydroxy-6-methylpyridazine-3-carboxamide] |
| 100 to 300 | < 100 | < 100 | COc1cc2nccc(Oc3ccc(NC(=O)c4cn(CC(F)(F)F)c(C)c(-c5ccc(F)cc5)c4=O)cc3F)c2cc1OC [Compound 259, N-[4-(6,7-Dimethoxyquinolin-4-yl)oxy-3-fluorophenyl]-5-(4-fluorophenyl)-6-methyl-4-oxo-1-(2,2,2-trifluoroethyl)pyridine-3-carboxamide] |
| < 100 | < 100 | < 100 | COc1cnc2c(Oc3ccc(NC(=O)c4n[nH]c(C)c(-c5ccc(F)cc5)c4=O)cc3F)ccnc2c1 [Compound 246, N-[3-Fluoro-4-[(7-methoxy-1,5-naphthyridin-4-yl)oxy]phenyl]-5-(4-fluorophenyl)-6-methyl-4-oxo-1H-pyridazine-3-carboxamide] |
| < 100 | < 100 | < 100 | COc1cnc2c(Oc3ccc(NC(=O)c4c(C)nc(C)n(-c5ccc(F)cc5)c4=O)cc3)ccnc2c1 [Compound 258, 1-(4-Fluorophenyl)-N-[4-[(7-methoxy-1,5-naphthyridin-4-yl)oxy]phenyl]-2,4-dimethyl-6-oxopyrimidine-5-carboxamide] |
| < 100 | < 100 | < 100 | COc1cc2nccc(Oc3ccc(NC(=O)c4n[nH]c(C)c(-c5ccc(F)cc5C)c4=O)cc3)c2nc1OC [Compound 247, N-[4-[(6,7-Dimethoxy-1,5-naphthyridin-4-yl)oxy]phenyl]-5-(4-fluoro-2-methylphenyl)-6-methyl-4-oxo-1H-pyridazine-3-carboxamide] |
| > 300 | < 100 | < 100 | COc1cnc2c(Oc3ccc(NC(=O)c4cnc(C(F)(F)F)c(-c5ccc(F)cc5)c4O)cc3F)ccnc2c1 [Compound 241, N-[3-Fluoro-4-[(7-methoxy-1,5-naphthyridin-4-yl)oxy]phenyl]-5-(4-fluorophenyl)-4-hydroxy-6-(trifluoromethyl)pyridine-3-carboxamide] |
